{
  "source": "paper PMC5366289",
  "about": "(Biochemistry, 2016)",
  "molecules": {"B1": {"name": "colicin E1: 522-residue channel-forming colicin (protein, UniProt P02978 1-522, looked up)", "Colicin-E1": "METAVAYYKDGVPYDDKGQVIITLLNGTPDGSGSGGGGGKGGSKSESSAAIHATAKWSTAQLKKTQAEQAARAKAAAEAQAKAKANRDALTQRLKDIVNEALRHNASRTPSATELAHANNAAMQAEDERLRLAKAEEKARKEAEAAEKAFQEAEQRRKEIEREKAETERQLKLAEAEEKRLAALSEEAKAVEIAQKKLSAAQSEVVKMDGEIKTLNSRLSSSIHARDAEMKTLAGKRNELAQASAKYKELDELVKKLSPRANDPLQNRPFFEATRRRVGAGKIREEKQKQVTASETRINRINADITQIQKAISQVSNNRNAGIARVHEAEENLKKAQNNLLNSQIKDAVDATVSFYQTLTEKYGEKYSKMAQELADKSKGKKIGNVNEALAAFEKYKDVLNKKFSKADRDAIFNALASVKYDDWAKHLDQFAKYLKITGHVSFGYDVVSDILKIKDTGDWKPLFLTLEKKAADAGVSYVVALLFSLLAGTTLGIWGIAIVTGILCSYIDKNKLNTINEVLGI"}},
  "key": {"[1]": {"test": "Far-UV circular dichroism, helical content of T-domain peptides", "type": "physicochemical"}, "[2]": {"molecular_target": "TolC (Escherichia coli, UniProt P02930)", "sequence (P02930 23-493)": "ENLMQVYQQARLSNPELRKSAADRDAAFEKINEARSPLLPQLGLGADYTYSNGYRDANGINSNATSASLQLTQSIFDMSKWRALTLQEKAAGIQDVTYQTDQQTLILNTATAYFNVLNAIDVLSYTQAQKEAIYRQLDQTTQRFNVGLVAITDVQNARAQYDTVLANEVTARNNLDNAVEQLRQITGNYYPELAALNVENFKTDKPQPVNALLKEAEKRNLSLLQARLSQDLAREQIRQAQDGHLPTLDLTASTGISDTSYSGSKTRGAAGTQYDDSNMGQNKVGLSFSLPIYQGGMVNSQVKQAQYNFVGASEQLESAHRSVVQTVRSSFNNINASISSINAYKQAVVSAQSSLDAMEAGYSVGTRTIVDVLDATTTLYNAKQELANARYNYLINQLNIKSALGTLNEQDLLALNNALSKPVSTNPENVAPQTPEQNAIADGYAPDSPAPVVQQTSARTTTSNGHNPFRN", "conditions": "BLM; concentration not given; listed as synthetic peptide 100–120"}, "[3]": {"tested_on": "E. coli cells", "conditions": "ref K. S. Jakes, unpublished data; listed as T100–120; cited from earlier work"}, "[4]": {"tested_on": "E. coli, TolC Gly43 mutants", "conditions": "cited from earlier work"}, "[5]": {"conditions": "cytoplasmic membrane; cited from earlier work"}},
  "note": "“Also recorded” adds a separate entry of the source.",
  "data": [
    {"molecule": "H-EALRHNASRTPSATELAHANN-OH [100–120 ^e]", "values": [
      {"measurement": "no. of residues, helix", "setting": "[1]; from helical content by far-UV CD, DichroWeb, tags assumed unordered", "result": 0, "unit": "residues"},
      {"measurement": "no. of residues, unordered", "setting": "[1]; total number in peptide excluding tags minus residues in helices", "result": 21, "unit": "residues"},
      {"measurement": "occlusion of TolC channels, in words", "setting": "[2]", "result": "did not occlude TolC channels"},
      {"measurement": "protection of E. coli cells against colicin E1 cytotoxicity", "setting": "[3]", "result": "inability of the synthetic peptide T100–120, which lacks ordered secondary structure, to occlude TolC channels, and to protect E. coli cells; also recorded: does not protect E. coli cells"}
    ]},
    {"molecule": "B1", "values": [
      {"measurement": "killing efficiency of colicin E1 on TolC Gly43 mutants", "setting": "[4]; larger side chains at TolC residue 43", "result": "reduced the killing efficiency"},
      {"measurement": "decrease in colicin E1 cytotoxicity by TolC G43 mutation", "setting": "[4]; mutation to residue with larger side chains", "result": "≤ 1000 -fold"},
      {"measurement": "channel conductance", "setting": "[5]", "result": "approximately 10^6 ions/s per channel"}
    ]}
  ]
}
